Assay results as given in US20100166714A1, “CARDIOVASCULAR STEM CELLS, METHODS FOR STEM CELL ISOLATION, AND USES THEREOF” (THE GENERAL HOSPITAL CORPORATION, priority 2006, published 2010).

Tested on: FACS purified isl1+ progenitors spontaneously differentiated into smooth muscle cells
Assay: Calcium imaging (fluo-4) after Angiotensin II stimulation
Type: cell-based, mouse
Conditions: Angiotensin II 10^-7 M
Method: Calcium imaging. FACS purified isl1^+ progenitors from double heterozygous isl1-mER-Cre-mER/R26R were plated on fibronectin coated glass chamber slides and allowed to spontaneously differentiate in DMEM/F12 containing B27 supplement, 2% FBS, and 10 ng/ml EGF. After 5 days in culture, cells were incubated for 20 minutes with 5 μM Fluo-4 AM (Molecular Probes) in HEPES buffer. Cells were then rinsed three times in HEPES buffer, pH 7.4, containing 1.5 mM Ca^2+. Angiotensin II was applied at the final concentration of 10^−7 M. Calcium imaging was acquired every 100 msec in 100 sec installment and analyzed using Metamorph software (Universal Imaging Corporation). Each experiment included three installments to cover the period of the agonist effect.

Substance: Angiotensin II (DRVYIHPF; Angiotensin-2; UniProt P01019 25-32, looked up)
- measured cells in which exposure induced a progressive cytosolic [Ca2+]i increase (isl1+ progenitors from isl1-mER-Cre-mER/R26R mice after 5 days in culture, Fluo-4 AM): 4 of 25
- time at which the cytosolic [Ca2+]i increase reached the maximum (responding cells, diminished thereafter): ~70 s
